Source: patent US9695426B2, “Biofuel production by recombinant microorganisms” (The Regents of the University of California, priority 2007, dated 2017)

Legend:
[1] = system: E. coli culture expressing kivd; assay: Alcohol productions with the supply of 2-keto acids; assay type: cell-based; conditions: 2-keto acid added to E. coli culture expressing kivd
From the text: The addition of various 2-keto acids (see Table 13) to the E. coli culture expressing kivd confirmed the specific production of the corresponding alcohols by 2- to 23-fold.

[2] = system: endogenous 2-keto acids in E. coli; assay: Alcohol productions with KDC and ADH in E. coli; assay type: cell-based; conditions: KDC over-produced with Adh2 in E. coli; minimal media with 0.2 M glucose
From the text: An enzyme in this alcohol production strategy is KDC, which is common in plants, yeasts and fungi but less so in bacteria. The aldehydes produced can then be converted to alcohols by an Adh, which is commonly found in many organisms. Some of the KDCs have broad-substrate ranges, while others are more specific. To test the capability of the endogenous 2-keto acids as a substrate for KDC in E. coli, five KDCs including Pdc6, Aro10, Thi3, from S. cerevisiae, Kivd from Lactococcus lactis, and Pdc from C. acetobutylycum were over-produced with alcohol dehydrogenase 2 (Adh2) of S. cerevisiae. E. coli cultures expressing these foreign genes were grown in a minimal media with 0.2 M glucose.

`CCC(C)C(=O)C(=O)O` (stereo not drawn) [2-keto-3-methyl-valerate] was tested. Which “Product 2-methyl-1-butanol” value [1] did it give?
Its value is 5284 µM.

For `O=C(O)C(=O)Cc1ccccc1` [phenylpyruvate], which “Product 1-butanol” value [1] is on record?
The value was 23 µM.

And the “Product 1-propanol” value [1]?
Its value is 8 µM.

What about the “Product 2-phenylethanol” value [1] of the same molecule?
The value was 7269 µM.

And the “Product 3-methyl-1-butanol” value [1]?
Its value is 105 µM.

What about the Product isobutanol [1] of the same molecule?
Its Product isobutanol is 64 µM.

`CC(C)CC(=O)C(=O)O` [2-keto-4-methyl-pentanoate] was tested. Which “Product 3-methyl-1-butanol” value [1] did it give?
Its value is 3756 µM.

Which “Product 1-butanol” value [1] does the source give for `CCCC(=O)C(=O)O` [2-ketovalerate] here?
Its value is 3926 µM.

What about the “Product 2-phenylethanol” value [1] of the same molecule?
Its value is 66 µM.

And the “Product 3-methyl-1-butanol” value [1]?
The value was 52 µM.

With `CC(C)C(=O)C(=O)O` [2-keto-isovalerate] as the molecule, how does the “Product 2-phenylethanol” value [1] read?
Its value is 109 µM.

And the Product isobutanol [1]?
Its Product isobutanol is 10016 µM.

B1: Kivd: 2-keto-acid decarboxylase Kivd from Lactococcus lactis (protein, listed as Lactococcus lactis)
chain: MYTVGDYLLDRLHELGIEEIFGVPGDYNLQFLDQIISRKDMKWVGNANELNASYMADGYARTKKAAAFLTTFGVGELSAVNGLAGSYAENLPVVEIVGSPTSKVQNEGKFVHHTLADGDFKHFMKMHEPVTAARTLLTAENATVEIDRVLSALLKERKPVYINLPVDVAAAKAEKPSLPLKKENSTSNTSDQEILNKIQESLKNAKKPIVITGHEIISFGLEKTVSQFISKTKLPITTLNFGKSSVDEALPSFLGIYNGKLSEPNLKEFVESADFILMLGVKLTDSSTGAFTHHLNENKMISLNIDEGKIFNESIQNFDFESLISSLLDLSEIEYKGKYIDKKQEDFVPSNALLSQDRLWQAVENLTQSNETIVAEQGTSFFGASSIFLKPKSHFIGQPLWGSIGYTFPAALGSQIADKESRHLLFIGDGSLQLTVQELGLAIREKINPICFIINNDGYTVEREIHGPNQSYNDIPMWNYSKLPESFGATEERVVSKIVRTENEFVSVMKEAQADPNRMYWIELILAKEDAPKVLKKMGKLFAEQNKS
With B1 as the molecule, how does the “Product 1-butanol” value [2] read?
Its value is 220 µM.

What about the “Product 1-propanol” value [2] of the same molecule?
Its value is 520 µM.

And the “Product 2-methyl-1-butanol” value [2]?
The value was 766 µM.

And the “Product 2-phenylethanol” value [2]?
Its value is 324 µM.

What about the “Product 3-methyl-1-butanol” value [2] of the same molecule?
Its value is 1495 µM.

And the Product isobutanol [2]?
The Product isobutanol was 5242 µM.

B2: ARO10: 2-keto-acid decarboxylase Aro10 from S. cerevisiae (protein, listed as Saccharomyces cerevisiae)
chain: MAPVTIEKFVNQEERHLVSNRSATIPFGEYIFKRLLSIDTKSVFGVPGDFNLSLLEYLYSPSVESAGLRWVGTCNELNAAYAADGYSRYSNKIGCLITTYGVGELSALNGIAGSFAENVKVLHIVGVAKSIDSRSSNFSDRNLHHLVPQLHDSNFKGPNHKVYHDMVKDRVACSVAYLEDIETACDQVDNVIRDIYKYSKPGYIFVPADFADMSVTCDNLVNVPRISQQDCIVYPSENQLSDIINKITSWIYSSKTPAILGDVLTDRYGVSNFLNKLICKTGIWNFSTVMGKSVIDESNPTYMGQYNGKEGLKQVYEHFELCDLVLHFGVDINEINNGHYTFTYKPNAKIIQFHPNYIRLVDTRQGNEQMFKGINFAPILKELYKRIDVSKLSLQYDSNVTQYTNETMRLEDPTNGQSSIITQVHLQKTMPKFLNPGDVVVCETGSFQFSVRDFAFPSQLKYISQGFFLSIGMALPAALGVGIAMQDHSNAHINGGNVKEDYKPRLILFEGDGAAQMTIQELSTILKCNIPLEVIIWNNNGYTIERAIMGPTRSYNDVMSWKWTKLFEAFGDFDGKYTNSTLIQCPSKLALKLEELKNSNKRSGIELLEVKLGELDFPEQLKCMVEAAALKRNKK
modifications: CDS (1)..(1908)
notes: 2-keto-acid decarboxylase Aro10 from S. cerevisiae
Which “Product 1-butanol” value [2] does the source give for B2 here?
Its value is 95 µM.

What about the “Product 1-propanol” value [2] of the same molecule?
The value was 290 µM.

And the “Product 2-methyl-1-butanol” value [2]?
The value was 652 µM.

What about the “Product 2-phenylethanol” value [2] of the same molecule?
The value was 469 µM.

And the “Product 3-methyl-1-butanol” value [2]?
Its value is 1099 µM.

What about the Product isobutanol [2] of the same molecule?
The Product isobutanol was 2094 µM.
